Assays:
Assay type in all cases: in vivo, Alfalfa (Medicago sativa L.)
alfalfa plants [1] = experiment: Example 3 efficacy test on alfalfa with or without Rhizobium inoculation: shoot weight, leaf area, root dry weight; details: Day 12 after foliar spray
Method: Five (5) seeds were sown in one pot. Alfalfa plants were randomly divided into 6 groups, in which Groups 1 to 3 were not inoculated with Rhizobium, and Groups 4 to 6 were inoculated with Rhizobium. Rhizobium inoculation was the same as described in Example 2. After inoculation, the pots were placed in a phytotron, which was operated at 25/23° C. day/night temperature and on a 16/8 h light/dark cycle. Two (2) weeks after sowing (V2 stage), alfalfa plants were applied with the reagents listed in Table 6 once at a rate of 10 mL/12 pots using a foliar spray treatment. The reagents were applied once in total during the test period. [table] Twelve (12) days after the application of reagents, 12 alfalfa plants from each group (N=12) were randomly selected for phenotype observation, and the shoot fresh weight of the collected samples was measured. Then, the collected samples were dried at 50° C. overnight, and the shoot dry weight was measured. Twelve (12) days after the application of reagents, 6 alfalfa plants from each group (N=6) were randomly selected. All the trifoliate leaves of the selected plants were collected and numbered in sequence from bottom to top. The leaf area of all the trifoliate leaves of each alfalfa plant was measured by a leaf analyzer ([…]2400, Regent Instruments Inc.). Twelve (12) days after the application of reagents, 4 alfalfa plants from each group (N=4) were randomly selected. The collected samples were dried at 50° C. overnight, and then the root dry weight was measured. Average and standard error (SE) of each group were calculated.

[2] = system: glutamate synthase (GOGAT); experiment: Example 3 activity of glutamate synthase (GOGAT) of alfalfa leaves; details: 12 days after application; Groups 2-3 without, Groups 4-6 with Rhizobium
Method: Alfalfa (Medicago sativa L.) seeds were sown in 3.5-inch pots containing culture medium (peat soil:vermiculite=1:1). Five (5) seeds were sown in one pot. Alfalfa plants were randomly divided into 6 groups, in which Groups 1 to 3 were not inoculated with Rhizobium, and Groups 4 to 6 were inoculated with Rhizobium. Rhizobium inoculation was the same as described in Example 2. After inoculation, the pots were placed in a phytotron, which was operated at 25/23° C. day/night temperature and on a 16/8 h light/dark cycle. Two (2) weeks after sowing (V2 stage), alfalfa plants were applied with the reagents listed in Table 6 once at a rate of 10 mL/12 pots using a foliar spray treatment. The reagents were applied once in total during the test period. [table] Twelve (12) days after the application of reagents, 4 alfalfa plants from each group (N=4) were randomly selected. The third trifoliate leaves of the selected plants were collected to determine GOGAT activity by the following method. […] The GOGAT activity is determined by NADH reduction through measuring fluorescence intensity at excitation/emission wavelengths of 340/445 nm. […] Average and standard error (SE) of each group were calculated.

alfalfa plants [3] = experiment: Example 3 nitrogen content of alfalfa leaves; details: 12 days after application; Groups 4-6 Rhizobium inoculated; p<0.001
Method: Alfalfa (Medicago sativa L.) seeds were sown in 3.5-inch pots containing culture medium (peat soil:vermiculite=1:1). Five (5) seeds were sown in one pot. Alfalfa plants were randomly divided into 6 groups, in which Groups 1 to 3 were not inoculated with Rhizobium, and Groups 4 to 6 were inoculated with Rhizobium. Rhizobium inoculation was the same as described in Example 2. After inoculation, the pots were placed in a phytotron, which was operated at 25/23° C. day/night temperature and on a 16/8 h light/dark cycle. Two (2) weeks after sowing (V2 stage), alfalfa plants were applied with the reagents listed in Table 6 once at a rate of 10 mL/12 pots using a foliar spray treatment. The reagents were applied once in total during the test period. [table] Twelve (12) days after the application of reagents, 4 alfalfa plants from each group (N=4) were randomly selected. The first to fifth trifoliate leaves of the selected plants were collected, air-dried at 50° C. overnight and then ground into powder. […] Average and standard error (SE) of each group were calculated.

[4] = Groups 2-3 without, Groups 4-6 with Rhizobium
[5] = Groups 4-6 Rhizobium inoculated
[6] = Groups 4-6 Rhizobium inoculated, Group 1 no Rhizobium, no actives

## NCCCC(=O)O [Group 4, γ-aminobutyric acid (GABA)]
Alfalfa plants [1]; [4]
  Leaf Area, Sum of trifoliate leaves: 6.27 cm^2/plant
  Leaf Area, trifoliate leaf number 1: 0.90 cm^2/plant
  Leaf Area, trifoliate leaf number 2: 1.03 cm^2/plant
  Leaf Area, trifoliate leaf number 3: 1.01 cm^2/plant
  Leaf Area, trifoliate leaf number 4: 0.85 cm^2/plant
  Leaf Area, trifoliate leaf number 5: 0.87 cm^2/plant
  Leaf Area, trifoliate leaf number 6: 0.93 cm^2/plant
  Leaf Area, trifoliate leaf number 7: 0.52 cm^2/plant
  Leaf Area, trifoliate leaf number 8: 0.17 cm^2/plant
  Leaf Area, trifoliate leaf number 9: 0.00 cm^2/plant
  increase of leaf area compared with Group 1: 64%
  root dry weights compared with Group 1: higher
Alfalfa plants [1]; [5]
  increase of trifoliate leaves compared with Group 1: 2 trifoliate leaves
  plant height compared with Group 1 (words, FIG. 12): higher
Alfalfa plants [1]; [6]
  increase of shoot dry weight compared with Group 1: 52.9%
  increase of shoot fresh weight compared with Group 1: 66.5%
[2]
  increase of GOGAT activity in the leaves compared with Group 1: 13.5%
Alfalfa plants [3]
  increase of nitrogen content in the leaves compared with Group 1: 115.8%
